Article PMC6979384, “Characterization of the plant homeodomain (PHD) reader family for their histone tail interactions” (Epigenetics & Chromatin, 2020)

Legend:
Assay in all cases: Histone peptide microarray
Assay type in all cases: binding, human
ING5 = details: ING5, GST-tagged; arrays performed twice, n of 4
How it was run: (§1)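 Using an optimized microarray protocol, purified GST-tagged PHD fingers were incubated at 0.5 μM on 293 histone peptides with single or multiple modifications, and array signal was recorded as the average of 4 replicates.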

PHF2 = details: PHF2, GST-tagged; arrays performed twice, n of 4
How it was run: as §1

CHD4 (PPCC) = details: CHD4 (PPCC), GST-tagged; arrays performed twice, n of 4
How it was run: as §1

PHF13 = details: PHF13, GST-tagged; arrays performed twice, n of 4
How it was run: as §1

KDM7A = details: KDM7A, GST-tagged; arrays performed twice, n of 4
How it was run: as §1

RAG2 = details: RAG2, GST-tagged; arrays performed twice, n of 4
How it was run: as §1

CHD5 (PCC) = details: CHD5 (PCC), GST-tagged; arrays performed twice, n of 4
How it was run: as §1

ING3 = details: ING3, GST-tagged; arrays performed twice, n of 4
How it was run: as §1

PHF23 = details: PHF23, GST-tagged; arrays performed twice, n of 4
How it was run: as §1

AIRE (PP) = details: AIRE (PP), GST-tagged; arrays performed twice, n of 4
How it was run: as §1

PHF8 = details: PHF8, GST-tagged; arrays performed twice, n of 4
How it was run: as §1

TRIM66 (PB) = details: TRIM66 (PB), GST-tagged; arrays performed twice, n of 4
How it was run: as §1

KDM4C (TTP) = details: KDM4C (TTP), GST-tagged; arrays performed twice, n of 4
How it was run: as §1

SP140L = details: SP140L, GST-tagged; arrays performed twice, n of 4
How it was run: as §1

MORC3 (CW) = details: MORC3 (CW), GST-tagged; arrays performed twice, n of 4
How it was run: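 GST-tagged PHD finger readers were expressed, purified and applied at 0.5 μM to a microarray of 293 synthetic histone peptides carrying single or combinatorial PTMs, using an optimized protocol. Binding signals are averages with standard deviation from 4 replicates.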

BPTF (PB) = details: BPTF (PB), GST-tagged; arrays performed twice, n of 4
How it was run: as §1

PHRF1 (RP) = details: PHRF1 (RP), GST-tagged; arrays performed twice, n of 4
How it was run: as §1

ING4 = details: ING4, GST-tagged; arrays performed twice, n of 4
How it was run: as §1

TAF3 = details: TAF3, GST-tagged; arrays performed twice, n of 4
How it was run: as §1

KDM5A (3) = details: KDM5A (3), GST-tagged; arrays performed twice, n of 4
How it was run: as §1

BAZ2B = details: BAZ2B, GST-tagged; arrays performed twice, n of 4
How it was run: as §1

DPF2 (PPC2W2) = details: DPF2 (PPC2W2), GST-tagged; arrays performed twice, n of 4
How it was run: as §1

KDM5A (1) = details: KDM5A (1), GST-tagged; arrays performed twice, n of 4
How it was run: as §1

PHF21A = details: PHF21A, GST-tagged; arrays performed twice, n of 4
How it was run: as §1

KDM5B (3) = details: KDM5B (3), GST-tagged; arrays performed twice, n of 4
How it was run: as §1

DIDO1 = details: DIDO1, GST-tagged; arrays performed twice, n of 4
How it was run: as §1

ING1 = details: ING1, GST-tagged; arrays performed twice, n of 4
How it was run: as §1

KDM5B (1) = details: KDM5B (1), GST-tagged; arrays performed twice, n of 4
How it was run: as §1

MLL5 = details: MLL5, GST-tagged; arrays performed twice, n of 4
How it was run: as §1

CHD5 (PPCC) = details: CHD5 (PPCC), GST-tagged; arrays performed twice, n of 4
How it was run: as §1

ING2 = details: ING2, GST-tagged; arrays performed twice, n of 4
How it was run: as §1

- Array Heatmap value (peptide array binding signal) (ING5): 0.3322
- Array Heatmap value (peptide array binding signal) (PHF2): 0.5225
- Array Heatmap value (peptide array binding signal) (CHD4 (PPCC)): 0.5518
- Array Heatmap value (peptide array binding signal) (PHF13): 0.5577
- Array Heatmap value (peptide array binding signal) (KDM7A): 0.3262
- Array Heatmap value (peptide array binding signal) (RAG2): 0.2674
- Array Heatmap value (peptide array binding signal) (CHD5 (PCC)): 0.733
- Array Heatmap value (peptide array binding signal) (ING3): 0.4477
- Array Heatmap value (peptide array binding signal) (PHF23): 0.5369
- Array Heatmap value (peptide array binding signal) (AIRE (PP)): 0.4547
- Array Heatmap value (peptide array binding signal) (PHF8): 0.3348
- Array Heatmap value (peptide array binding signal) (TRIM66 (PB)): 0.5363
- Array Heatmap value (peptide array binding signal) (KDM4C (TTP)): 0.4463
- Array Heatmap value (peptide array binding signal) (SP140L): 0.3692
- Array Heatmap value (peptide array binding signal) (MORC3 (CW)): 0.4162
- Array Heatmap value (peptide array binding signal) (BPTF (PB)): 0.3256
- Array Heatmap value (peptide array binding signal) (PHRF1 (RP)): 0.3943
- Array Heatmap value (peptide array binding signal) (ING4): 0.4334
- Array Heatmap value (peptide array binding signal) (TAF3): 0.2878
- Array Heatmap value (peptide array binding signal) (KDM5A (3)): 0.478
- Array Heatmap value (peptide array binding signal) (BAZ2B): 0.4423
- Array Heatmap value (peptide array binding signal) (DPF2 (PPC2W2)): 0.6502
- Array Heatmap value (peptide array binding signal) (KDM5A (1)): 0.4587
- Array Heatmap value (peptide array binding signal) (PHF21A): 0.4468
- Array Heatmap value (peptide array binding signal) (KDM5B (3)): 0.4637
- Array Heatmap value (peptide array binding signal) (DIDO1): 0.7308
- Array Heatmap value (peptide array binding signal) (ING1): 0.536
- Array Heatmap value (peptide array binding signal) (KDM5B (1)): 0.6162
- Array Heatmap value (peptide array binding signal) (MLL5): 0.533
- Array Heatmap value (peptide array binding signal) (CHD5 (PPCC)): 0.5152
- Array Heatmap value (peptide array binding signal) (ING2): 0.621
Substance: H2AX (132-142): H2AX 132-142 (GKKATQASQEY; UniProt P16104 133-143, looked up, fragment)
